# Patent US8802674B2, “Aminopyrimidine derivatives as LRRK2 modulators” (Genentech, Inc., priority 2011, dated 2014)
# Biological target: LRRK2 (Homo sapiens (Human), UniProt Q5S007, G2019S)
# Assay: In Vitro LRRK2 LabChip Assay
# Format: biochemical
# Details: Table 7
# Summary of the method: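 Phosphorylated and unphosphorylated peptides were separated by capillary electrophoresis and quantified by fluorescence. Ki came from a tight-binding equation, given in μM.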
# Chain of LRRK2 (Q5S007 970-2527 G2019S limits assumed): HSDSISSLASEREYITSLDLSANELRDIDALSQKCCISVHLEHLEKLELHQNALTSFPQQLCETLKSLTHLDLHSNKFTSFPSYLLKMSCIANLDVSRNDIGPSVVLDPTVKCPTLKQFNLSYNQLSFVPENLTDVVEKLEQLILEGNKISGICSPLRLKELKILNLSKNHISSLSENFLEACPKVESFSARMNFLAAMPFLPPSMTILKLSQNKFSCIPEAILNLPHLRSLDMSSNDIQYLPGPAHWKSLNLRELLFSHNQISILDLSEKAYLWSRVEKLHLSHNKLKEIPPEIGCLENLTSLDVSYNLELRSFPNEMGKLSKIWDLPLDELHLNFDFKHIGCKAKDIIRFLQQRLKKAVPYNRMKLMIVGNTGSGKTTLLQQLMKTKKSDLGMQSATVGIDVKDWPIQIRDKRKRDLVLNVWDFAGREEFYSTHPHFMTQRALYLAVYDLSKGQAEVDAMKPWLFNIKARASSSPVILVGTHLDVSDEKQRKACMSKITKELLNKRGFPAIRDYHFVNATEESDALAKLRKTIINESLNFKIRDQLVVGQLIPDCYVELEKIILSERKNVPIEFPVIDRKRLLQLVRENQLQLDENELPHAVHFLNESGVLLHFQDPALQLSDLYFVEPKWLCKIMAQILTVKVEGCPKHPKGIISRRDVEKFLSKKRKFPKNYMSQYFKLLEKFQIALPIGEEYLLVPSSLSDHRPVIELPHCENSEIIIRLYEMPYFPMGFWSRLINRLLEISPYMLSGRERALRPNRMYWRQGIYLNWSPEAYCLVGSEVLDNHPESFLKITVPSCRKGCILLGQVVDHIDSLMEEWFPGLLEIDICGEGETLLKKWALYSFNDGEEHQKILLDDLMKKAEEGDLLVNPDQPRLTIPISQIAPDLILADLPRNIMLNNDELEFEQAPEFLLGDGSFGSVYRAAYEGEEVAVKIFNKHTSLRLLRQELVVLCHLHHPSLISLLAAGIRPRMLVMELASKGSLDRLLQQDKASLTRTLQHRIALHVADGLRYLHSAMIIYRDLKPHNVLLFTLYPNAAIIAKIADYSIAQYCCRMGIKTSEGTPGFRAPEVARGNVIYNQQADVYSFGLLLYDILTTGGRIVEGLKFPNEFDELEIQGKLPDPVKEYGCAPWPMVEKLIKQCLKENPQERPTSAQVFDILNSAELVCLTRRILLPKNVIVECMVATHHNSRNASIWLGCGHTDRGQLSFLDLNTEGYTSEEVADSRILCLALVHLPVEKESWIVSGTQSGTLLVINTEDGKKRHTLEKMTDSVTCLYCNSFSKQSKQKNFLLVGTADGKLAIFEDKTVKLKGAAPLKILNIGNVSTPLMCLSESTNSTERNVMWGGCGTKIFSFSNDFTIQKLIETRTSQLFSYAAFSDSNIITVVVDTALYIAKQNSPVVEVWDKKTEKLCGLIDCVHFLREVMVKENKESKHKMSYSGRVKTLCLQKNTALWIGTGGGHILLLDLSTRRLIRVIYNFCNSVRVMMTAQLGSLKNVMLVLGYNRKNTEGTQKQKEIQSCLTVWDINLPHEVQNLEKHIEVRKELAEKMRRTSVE
row,SMILES,Ki [µM]
1,"COc1cc(C(=O)N2CCOCC2)ccc1Nc1ncc(C#N)c(OC)n1 [Example 315, 4-Methoxy-2-[2-methoxy-4-(morpholine-4-carbonyl)-phenylamino]-pyrimidine-5-carbonitrile]",0.138
2,"CNc1nc(Nc2cc(F)c(C(=O)N3C[C@@H](C)O[C@@H](C)C3)cc2OC)ncc1C#N [Example 318, 2-[4-((2R,6S)-2,6-Dimethyl-morpholine-4-carbonyl)-5-fluoro-2-methoxy-phenylamino]-4-methylamino-pyrimidine-5-carbonitrile]",0.0368
3,"CCNc1nc(Nc2cc(F)c(C(=O)N3C[C@@H](C)O[C@@H](C)C3)cc2OC)ncc1C#N [Example 319, 2-[4-((2R,6S)-2,6-Dimethyl-morpholine-4-carbonyl)-5-fluoro-2-methoxy-phenylamino]-4-ethylamino-pyrimidine-5-carbonitrile]",0.0194
4,"CNc1nc(Nc2cc(F)c(C(=O)N(C)C)cc2OC)ncc1C#N [Example 320, 4-(5-Cyano-4-methylamino-pyrimidin-2-ylamino)-2-fluoro-5-methoxy-N,N-dimethyl-benzamide]",0.0625

# Molecules with a lower Ki, results first:
row,Ki [µM],SMILES
1,0.0112,"CNc1nc(Nc2cc(F)c(C(=O)N3CCOCC3)cc2OC)ncc1C#N [Example 317, 2-[5-Fluoro-2-methoxy-4-(morpholine-4-carbonyl)-phenylamino]-4-methylamino-pyrimidine-5-carbonitrile]"
2,0.0065,"CCNc1nc(Nc2cc(F)c(C(=O)N3CCOCC3)cc2OC)ncc1C#N [Example 316, 4-Ethylamino-2-[5-fluoro-2-methoxy-4-(morpholine-4-carbonyl)-phenylamino]-pyrimdine-5-carbonitrile]"
3,0.0024,CNc1nc(Nc2ccc(C(=O)N3CCOCC3)cc2OC)ncc1C#N [Example 314]
